Test results reported in patent publication US20020006406A1, “METHOD FOR THE TREATMENT OF STAPHYLOCOCCAL DISEASE” (priority 1997, published 2002).
Like-named read-outs stand apart in the source and are kept apart here. Marks after values point to notes of the source that are not given here.

Legend:
[1] = test system: methicillin-resistant VISA strain of S. aureus; assay: Experimental endocarditis in rabbits, methicillin-resistant VISA strain; assay type: in vivo
Experimental: Aortic valve endocarditis was established in New Zealand white rabbits weighing approximately 3 kg. Rabbits were anesthetized and the right carotid artery surgically exposed and cannulated with a polyethylene catheter which was advanced into the left ventricle of the heart. After at least 24 h, the rabbits were infected intravenously with 10^6-10^7 cells of a methicillin-resistant S. aureus strain (MRSA 27619). Twenty-four hours later, the animals were randomly assigned to different treatment groups; untreated control (9 rabbits); positive control, vancomycin 30 mg/kg twice daily (15); lysostaphin 5 mg/kg three times daily (11); lysostaphin 5 mg/kg once daily (10); lysostaphin 5 mg/kg once daily+vancomycin 30 mg/kg twice daily (11). Any rabbits whose infection was not confirmed by pre-treatment blood culture were eliminated.
All treatments were intravenous and were carried out for three days. The state of health of the rabbits was assessed at intervals. The rabbits were sacrificed 18 h after the last treatment. Aortic vegetations were removed and weighed and processed to determine the number of viable bacteria, expressed as log,10CFU/gram. The limit of detection is 10^2 CFU/gram (log10CFU/gram=2.0). The mean titers of bacteria per gram were compared by one-way analysis of variance. The Student-Newman-Keuls test was used to adjust for multiple comparisons.
Strains that are both methicillin-resistant and resistant to vancomycin are a newly emerging problem. A variant strain of this type was selected after cycles of growth in glycopeptide-containing medium. The vancomycin MIC for the resulting strain was 8 μg/ml, as reported also for naturally occurring VISA strains isolated from patients in the U.S. and Japan. (Centers for Disease Control and Prevention, Morbidity and Mortality Weekly Report 1997; 46:813-815). Staphylococcal isolates are considered to be susceptible to vancomycin if the MIC is less than or equal to 4 μg/ml and to be completely resistant if the MIC is greater than or equal to 32 μg/ml (National Committee for Clinical Laboratory Standards, 1993. Approved Standard M2-A5. Performance standards for antimicrobial disk susceptibility tests—Fifth edition. National Committee for Clinical Laboratory Standards, Villanova, Pa.)

[2] = test system: methicillin-resistant clinical isolates of S. aureus and 27619VR; assay: Time-kill experiment, four S. aureus strains (FIG. 2); assay type: cell-based; settings: 1 μg/ml; three methicillin-resistant clinical isolates and 27619VR; 2×10^6 to 9×10^7 CFU/ml
Experimental: In another experiment (FIG. 2), three different methicillin-resistant clinical isolates of S. aureus, and a fourth strain, 27619VR, a laboratory-derived ‘VISA’ strain (i.e., with intermediate resistance to vancomycin) derived from a methicillin-resistant clinical isolate, were inoculated into cation-adjusted Mueller-Hinton broth (Becton Dickinson) and grown at 37° C. overnight. They were then diluted into fresh broth and incubated at 37° C. with gentle shaking until they were estimated to have reached the logarithmic stage of growth. […] Lysostaphin was added to each culture at the concentration of 1 μg/ml. At intervals, samples were withdrawn, serially diluted in 0.9% NaCl, and plated by spreading on Mueller-Hinton agar (Becton Dickinson). The agar plates were incubated for 48 hours at 37° C. and the colonies were counted manually.

[3] = single parenteral dose, followed by gentamicin three days later; the patient died; cited from earlier work
[4] = test system: Giorgio strain of S. aureus; settings: mice, cited from earlier work

Substance: lysostaphin: recombinant lysostaphin enzyme from fermentation of B. sphaericus; majority component lacks the two N-terminal amino acids of the published sequence
- CFU/g vegetation (expressed as log10 of the mean) ([1]; 5 mg/kg three times daily): 6.29 log10 CFU/g
- sterile/total vegetations ([1]; 5 mg/kg three times daily): 2/10
- CFU/g vegetation (expressed as log10 of the mean) ([1]; 15 mg/kg twice daily): 4.0** log10 CFU/g
- sterile/total vegetations ([1]; 15 mg/kg twice daily): 0/5
- killing of strains in time-kill experiment [2]: rapidly killed
- outcome in one very ill human patient [3]: reduction in bacteremia
- numbers of bacteria in the kidneys ([4]; intravenously within 6 hours after infection, dosages of 1.5 mg/kg or higher): significant reductions
- numbers of bacteria in the kidneys ([4]; treatment withheld for 24 hours or longer, dosages of 125 or 250 mg/kg): only modest reductions
